Tests used:
[1] = biological target: Protein kinase C alpha type (Homo sapiens, UniProt P17252); experiment: Displacement of [3H]- PDBu from recombinant PKC alpha expressed in baculovirus
[2] = biological target: T1, Protein kinase C delta type (Homo sapiens, UniProt Q05655); experiment: Inhibition of [3H]-PDBu binding to PKC delta mutant Leu 24-Gly (No binding)
Target sequence in this assay (Q05655 whole entry, looked up): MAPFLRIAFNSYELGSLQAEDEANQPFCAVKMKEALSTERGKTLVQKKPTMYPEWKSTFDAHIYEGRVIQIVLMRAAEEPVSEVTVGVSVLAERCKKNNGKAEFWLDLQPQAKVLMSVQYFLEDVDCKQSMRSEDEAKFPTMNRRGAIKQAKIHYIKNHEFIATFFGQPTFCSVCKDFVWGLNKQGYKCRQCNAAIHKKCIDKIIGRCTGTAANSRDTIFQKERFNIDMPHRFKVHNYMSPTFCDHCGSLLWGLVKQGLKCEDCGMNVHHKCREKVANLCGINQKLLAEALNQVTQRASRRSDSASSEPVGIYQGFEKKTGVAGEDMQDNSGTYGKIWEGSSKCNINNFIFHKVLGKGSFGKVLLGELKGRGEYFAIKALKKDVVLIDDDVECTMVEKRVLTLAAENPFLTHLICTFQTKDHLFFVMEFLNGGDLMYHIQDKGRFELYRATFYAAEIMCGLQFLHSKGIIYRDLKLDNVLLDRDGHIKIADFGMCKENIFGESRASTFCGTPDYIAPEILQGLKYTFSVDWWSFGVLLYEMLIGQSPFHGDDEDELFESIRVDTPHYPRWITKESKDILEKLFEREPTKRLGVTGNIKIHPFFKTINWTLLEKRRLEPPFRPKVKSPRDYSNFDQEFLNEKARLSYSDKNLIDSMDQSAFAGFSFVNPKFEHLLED

[3] = biological target: T1, Protein kinase C delta type; experiment: Inhibition of [3H]PDBu binding to PKC delta mutant Gln 27-Gly (No binding)
Target sequence in this assay (Q05655 whole entry, looked up): as above

[4] = biological target: T1, Protein kinase C delta type; experiment: Displacement of [3H]- PDBu from recombinant PKC delta expressed in baculovirus
Target sequence in this assay (Q05655 whole entry): as the sequence (Q05655 whole entry, looked up) above

[5] = biological target: T2, Protein kinase C epsilon type (Homo sapiens, UniProt Q02156); experiment: Displacement of [3H]- PDBu from recombinant PKC epsilon expressed in baculovirus
T2 sequence (Q02156 whole entry): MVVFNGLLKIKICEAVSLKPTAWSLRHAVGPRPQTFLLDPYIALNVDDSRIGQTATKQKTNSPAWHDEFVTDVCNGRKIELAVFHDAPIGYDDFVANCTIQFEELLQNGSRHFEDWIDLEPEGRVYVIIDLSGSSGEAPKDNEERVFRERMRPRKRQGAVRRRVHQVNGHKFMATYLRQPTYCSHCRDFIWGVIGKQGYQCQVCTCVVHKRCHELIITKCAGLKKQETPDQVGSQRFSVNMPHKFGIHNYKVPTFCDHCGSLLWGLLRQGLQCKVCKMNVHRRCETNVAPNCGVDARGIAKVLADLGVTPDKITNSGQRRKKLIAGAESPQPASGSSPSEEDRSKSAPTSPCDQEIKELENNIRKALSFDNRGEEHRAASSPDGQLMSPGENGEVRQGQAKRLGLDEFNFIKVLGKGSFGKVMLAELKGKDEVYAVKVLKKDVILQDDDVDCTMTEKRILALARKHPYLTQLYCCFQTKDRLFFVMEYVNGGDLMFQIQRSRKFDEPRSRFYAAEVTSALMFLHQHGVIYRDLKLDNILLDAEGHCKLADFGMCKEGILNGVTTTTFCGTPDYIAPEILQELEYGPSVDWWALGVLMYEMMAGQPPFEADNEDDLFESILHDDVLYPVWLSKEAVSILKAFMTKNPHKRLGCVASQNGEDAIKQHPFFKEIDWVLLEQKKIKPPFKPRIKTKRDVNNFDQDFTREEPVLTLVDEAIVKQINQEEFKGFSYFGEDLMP

[6] = biological target: Protein kinase C gamma type (Homo sapiens, UniProt P05129); experiment: Displacement of [3H]- PDBu from recombinant PKC gamma expressed in baculovirus
[7] = biological target: Protein kinase C beta type (Homo sapiens, UniProt P05771); experiment: Displacement of [3H]- PDBu from recombinant PKC beta expressed in baculovirus
Chain of Protein kinase C beta type (P05771 whole entry): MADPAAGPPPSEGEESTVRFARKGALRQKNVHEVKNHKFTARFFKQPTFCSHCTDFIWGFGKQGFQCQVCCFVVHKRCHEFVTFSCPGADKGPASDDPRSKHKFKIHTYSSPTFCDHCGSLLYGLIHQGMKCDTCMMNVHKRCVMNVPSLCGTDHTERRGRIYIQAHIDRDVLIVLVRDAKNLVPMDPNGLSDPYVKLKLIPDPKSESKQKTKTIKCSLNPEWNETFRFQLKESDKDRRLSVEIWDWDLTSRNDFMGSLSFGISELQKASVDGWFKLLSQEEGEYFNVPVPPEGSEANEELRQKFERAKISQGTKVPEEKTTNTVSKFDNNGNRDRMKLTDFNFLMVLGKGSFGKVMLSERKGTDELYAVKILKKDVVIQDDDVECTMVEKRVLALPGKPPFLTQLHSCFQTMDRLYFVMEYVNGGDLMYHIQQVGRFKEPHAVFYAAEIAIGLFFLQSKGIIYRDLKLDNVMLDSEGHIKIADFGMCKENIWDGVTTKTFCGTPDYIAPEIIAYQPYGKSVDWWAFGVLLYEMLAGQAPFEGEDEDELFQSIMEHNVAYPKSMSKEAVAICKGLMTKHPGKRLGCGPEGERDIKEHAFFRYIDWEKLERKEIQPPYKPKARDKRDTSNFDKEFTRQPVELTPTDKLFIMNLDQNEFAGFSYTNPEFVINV

[8] = biological target: T1, Protein kinase C delta type; experiment: Inhibition of [3H]PDBu binding to PKC delta mutant Leu 20-Gly
Target sequence in this assay (Q05655 whole entry, looked up): as the sequence (Q05655 whole entry, looked up) above

[9] = biological target: T1, Protein kinase C delta type; experiment: Inhibition of [3H]-PDBu binding to PKC delta mutant Gln 27-Val
Target sequence in this assay (Q05655 whole entry, looked up): as above

[10] = biological target: T1, Protein kinase C delta type; experiment: Inhibition of [3H]PDBu binding to PKC delta mutant Pro 11-Gly
Target sequence in this assay (Q05655 whole entry, looked up): as above

[11] = biological target: T1, Protein kinase C delta type; experiment: Inhibition of [3H]PDBu binding to PKC delta wild type
Target sequence in this assay (Q05655 whole entry): as the sequence (Q05655 whole entry, looked up) above

| SMILES | Ki [1] [nM] | Ki [2] | Ki [3] | Ki [4] [nM] | Ki [5] [nM] | Ki [6] [nM] | Ki [7] [nM] | Ki [8] [nM] | Ki [9] [nM] | Ki [10] [nM] | Ki [11] [nM] |
| --- | --- | --- | --- | --- | --- | --- | --- | --- | --- | --- | --- |
| CC(C)[C@H]1C(=O)N[C@H](CO)Cc2ccccc2N1C | 334 |  |  |  |  |  |  |  |  |  |  |
| CCCC(=O)O[C@@H]1[C@@H](C)[C@@]2(O)[C@@H](C=C(CO)C[C@]3(O)C(=O)C(C)=C[C@@H]23)[C@@H]2C(C)(C)[C@]12OC(=O)CCC |  | Not Active | Not Active |  |  |  |  |  |  |  |  |
| CCCCCCCCCCc1ccc2c(c1)C[C@@H](CO)NC(=O)[C@H](C(C)C)N2C | 46.6 |  |  | 142 | 187 | 122 |  |  |  |  |  |
| CCCCCCCCc1ccc2c3c(c[nH]c13)C[C@@H](CO)NC(=O)[C@H](C(C)C)N2C | 0.5 |  |  | 0.8 | 1 | 1.2 | 0.4 |  |  |  |  |
| CCCCCCCCC#Cc1ccc2c(c1)C[C@@H](CO)NC(=O)[C@H](C(C)C)N2C | 14.7 |  |  | 122 | 142 | 40.7 | 17.4 | 134 | 933 | 730 | 10.7 |
| CC(C)[C@H]1C(=O)N[C@H](CO)Cc2c[nH]c3cccc(c23)N1C [INDOLACTUM] |  |  |  | 8.2 | 21.9 | 19.4 | 6.1 |  |  |  |  |

Source: ChEMBL document CHEMBL1129999, “Modeling, chemistry, and biology of the benzolactam analogues of indolactam V (ILV). 2. Identification of the binding site of the benzolactams in the CRD2 activator-binding domain of PKCdelta and discovery of an ILV analogue of improved isozyme selectivity” (J Med Chem, 1997)
